Results: patent EP4772500A1, “NOVEL ISOXAZOLE COMPOUND AS TM4SF5-SPECIFIC INHIBITOR AND USE THEREOF” (Seoul National University R&DB Foundation, priority 2023, dated 2025)

Columns and labels:
TM4SF5 and PD-L1 = target: T1, TM4SF5 and PD-L1 (Homo sapiens, UniProt O14894); assay: Pulldown: binding between TM4SF5 and PD-L1; type: cell-based; conditions: 2.5 µM, 24 hours, SNU449 (FIG. 17c)
T1 construct: expressed in transfected cells; host or cells: SNU449 cells stably expressing TM4SF5, additionally transfected with PD-L1-HA cDNA
T1 sequence (O14894 1-197): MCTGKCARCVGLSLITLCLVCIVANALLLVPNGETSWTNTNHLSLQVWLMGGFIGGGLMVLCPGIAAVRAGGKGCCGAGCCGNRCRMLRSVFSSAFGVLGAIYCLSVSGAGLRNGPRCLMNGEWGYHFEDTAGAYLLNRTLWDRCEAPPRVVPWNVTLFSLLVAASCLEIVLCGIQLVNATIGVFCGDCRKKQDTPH
Description: Cells were cultured to ~60% density in a cell incubator at 37°C and 5% CO2, and then transfected using PEI and cultured in a cell incubator at 37°C for two days. After cultivation, cell extracts were obtained by the method described above. After precipitating a desired protein from the cell extracts using an immunoprecipitation method, the binding proteins were identified by the Western blot technique described above. Specifically, cells cultured in a 100 mm cell culture dish for two days were washed twice with PBS, and protease inhibitor cocktails (GenDepot, USA) were added to 500 µl of immunoprecipitation lysis buffer (0.5% Triton X-100 or Brij 58, 40 mM HEPES, 150 mM NaCl, 1 mM EDTA, pH 7.4), followed by treatment at 4°C for 15 minutes. After collecting the cells, centrifugation was performed at 12,000x g at 4°C for 15 minutes, and the supernatant was transferred to a new microcentrifuge tube to obtain a cell extract. Proteins therein were quantified using a BCA reagent (Thermo Scientifics, USA). An electrophoresis sample was prepared by adding 4x laemmli sample buffer to a portion of the quantified sample and boiling at 100°C for 5 minutes. For immunoprecipitation, Streptavidin Agarose Resin (Thermo Fisher Scientific) or anti-HA antibody-coated Sepharose beads were added in proportion to the quantified protein amount, followed by rotation at 4°C for 4 hours, and then centrifugation was performed at 7,000x g at 4°C for 5 minutes and the supernatant was discarded. […]
(a-b) The same number of SNU449-EV or SNU449-TM4SF5 cells were transferred to culture vessels and cultured overnight. […] From the cell extracts, Strep-TM4SF5 was pulled down with strep-agarose beads, and then Western blotting was performed using antibodies against the indicated proteins, or the intracellular localization and expression level of TM4SF5 (red fluorescence) and PD-L1 (green fluorescence) were confirmed with a fluorescence microscope through immunostaining along with DNA staining using DAPI.

TM4SF5 = target: T2, TM4SF5 (Homo sapiens, UniProt O14894); assay: 1,2-3H-Cholesterol binding to pulled-down TM4SF5; parameters: expressed in transfected cells; captured on streptavidin agarose; conditions: 1,2-3H-Cholesterol (50 µM); for IC50: Huh7KO Strep-TM4SF5 (FIG. 19e), read-out: concentration at which binding between TM4SF5 and cholesterol was reduced by 50%; for binding of TM4SF5 to cholesterol: drug 2.5 µM, 1 hour (FIG. 19c)
T2 sequence (O14894 1-197): T1 sequence (O14894 1-197)
Description: (a) Expression vectors for a control vector, TM4SF1, TM4SF5 WT, and R113Q, C118/145A, H127A, and N138A mutants of TM4SF5 were injected into the HEK293FT cell line, which was confirmed not to express TM4SF5, and allowed to express for 48 hours. (b) Huh7KO cell lines, in which TM4SF5 was knocked out in Huh7, were stably infected with a retrovirus encoding pBabe-EV or pBabe-TM4SF5-HA. […] (d) Strep-EV, Strep-PD-L1 WT, and 3NQ (N192/200/219Q) and 4NQ (N35/192/200/219Q) N-glycosylation mutants were injected into Huh7 cells to be expressed. (e) Strep-EV and Strep-TM4SF5 expression vectors were injected into Huh7KO cells and allowed to express for 48 hours. (a-e) After obtaining cell extracts, TM4SF5-strep, TM4SF5-HA, or PD-L1-strep was pulled down with streptavidin agarose resin or anti-HA antibody from extracts containing 0.2, 0.25, or 1.0 mg of protein for each experimental condition. Each of the pulled-down beads was treated with ^14C-labelled ST-5-002 (10, 25, or various indicated concentrations, µM) for 1 hour in the presence or absence of 400 µM of cold ST-5-002 (a-b). Alternatively, they were treated with 1,2-^3H-Cholesterol (50 µM) alone or together with ST-3-001 (negative control compound), ST-5-001, or ST-5-002 (2.5 µM each) for 1 hour (c-e). For the experimental samples of each condition, radioactive isotope values were repeatedly measured using a TriCarb scintillation counter (PerkinElmer, Waltham, MA).

Row | Compound | binding between TM4SF5 and PD-L1 (TM4SF5 and PD-L1) | IC50 (TM4SF5) | binding of TM4SF5 to cholesterol (TM4SF5)
1 | Cc1ccc(C(=O)Nc2ccc(-c3cc(-c4ccc(O)cc4)no3)cc2)cc1 [ST-5-002, N-(4-(3-(4-hydroxyphenyl)isoxazole-5-yl)phenyl)-4-methylbenzamide] | decreased and inhibited | 0.787 µM | inhibited
2 | CC(=O)Nc1ccc(-c2cc(-c3ccc(O)cc3)no2)cc1 [ST-5-001, N-(4-(3-(4-hydroxyphenyl)isoxazole-5-yl)phenyl)acetamide] | decreased and inhibited | 6.15 µM | inhibited
3 | COc1cccc(-c2cc(-c3ccc(NC(C)=O)cc3)no2)c1 [ST-3-001, N-(4-(5-(3-methoxyphenyl)isoxazole-3-yl)phenyl)acetamide] |  |  | not affected
4 | Cc1ccc(S(=O)(=O)Nc2ccc(C(=O)/C=C/c3ccc(O)cc3)cc2)cc1 [TSAHC, 4'-(p-toluenesulfonylamino)-4-hydroxychalcone, reference compound] | inhibition |  | 
